Each structure is given as a SMILES string.

The test system of this test is β-receptor. Description: Reactivity for dobutamine (β-receptor response, LVdp/dtmax) in anesthetized rats 1 week after the operation. The class given is in vivo, rat. The following applies: i.v.; for reactivity of the β-receptor: difference in LVdp/dtmax between before and after administration (Δ): male JCL-Wistar rat, mean ± standard error. The procedure: A male JCL-Wistar rat (13 to 15 week-old) was anesthetized with pentobarbital (50 mg/kg, i.p.) and subjected to thoracotomy at the midline under artificial respiration. The pericardium was dissected to expose the heart, and the proximal portion of the ascending aorta was dissected. A thread was put through the proximal portion of the left coronary artery along with the cardiac muscle, with a needled suture, and the thread was ligated to occlude the coronary artery. Immediately after the occlusion of the coronary artery (within 5 minutes), a polyethylene tube having a length of 3 mm (outer diameter: 2.80 mm; inner diameter: 1.77 mm) was installed on the proximal portion of the ascending aorta to conduct stenosis of 40 to 50%. After that, close-chest operation was conducted, and the rat was returned to a breeding cage after spontaneous respiration had been confirmed, and bred for 1 week by a general procedure. The rats in which the recovery of spontaneous respiration had not been confirmed were excluded from the following analysis. After 1 week of the operation, to measure the hemodynamics, the rat was anesthetized with pentobarbital (40 mg/kg, i.p.). A tracheal cannula was inserted, then a mirror catheter having a pressure sensor (2F) was inserted from the right carotid artery to the left ventricle. The waveform of the left ventricular pressure was analyzed with a differential amplifier, and the maximum differential value (LVdp/dtmax) and the minimum differential value (LVdp/dtmin) were recorded.
On the other hand, in order to measure the blood pressure and to administrate a drug, a polyethylene tube was inserted to the left femoral artery and left femoral vein, respectively, and the heart rate carculated from the blood pressure pulse and the dipolar lead (II) electrocardiogram were recorded.
Dobutamime was dissolved in a solution of saline containing 0.01% of ascorbic acid, and the solution was administrated in a dose of 0.3 to 10 μg/kg i.v. to investigate the β-receptor response.
The basal hemodynamics after 1 week of the operation was represented by the value before the administration of dobutamime, and the reactivity of the β-receptor was represented by the difference between before and after the administration of dobutamime (Δ mmHg/sec) by the mean value±standard error.

Take `CC(CCc1ccc(O)cc1)NCCc1ccc(O)c(O)c1` (stereo not drawn) [Dobutamine]: the “reactivity of the β-receptor: difference in LVdp/dtmax between before and after administration (Δ)” value turned out to be 278 ± 144 mmHg/sec (0.3 μg/kg, group with coronary stenosis and stenosis of the proximal portion of the aorta); 2287 ± 8 mmHg/sec (0.3 μg/kg, sham-operated group); 832 ± 501 mmHg/sec (1.0 μg/kg, group with coronary stenosis and stenosis of the proximal portion of the aorta); 4127 ± 112 mmHg/sec (1.0 μg/kg, sham-operated group); 1641 ± 794 mmHg/sec (3.0 μg/kg, group with coronary stenosis and stenosis of the proximal portion of the aorta); 7135 ± 753 mmHg/sec (3.0 μg/kg, sham-operated group). In addition, the “reactivity of the β-receptor: difference in LVdp/dtmax between before and after administration (Δ)” value by setting is: (10 μg/kg, group with coronary stenosis and stenosis of the proximal portion of the aorta) 2431 ± 1028 mmHg/sec; (10 μg/kg, sham-operated group) 7654 ± 999 mmHg/sec. The “maximum reaction of LVdp/dtmax in the stenosis group as compared with the sham-operated group” value (all doses 0.3, 1.0, 3.0, 10 μg/kg, coronary + proximal aorta stenosis group vs sham-operated group) is recorded as “remarkably decreased”.

The values are drawn from patent publication US7166762B2, “Method of constructing heart failure model animal” (Takeda Pharmaceutical Company Limited, priority 2000, dated 2007).
